What was measured:
[1] = target: Voltage-gated inwardly rectifying potassium channel KCNH2 (Homo sapiens, UniProt Q12809); assay: Inhibition of human ERG
[2] = target: T1, Adrenergic receptor alpha-2 (Rattus norvegicus, UniProt P22086+P19328+P22909); assay: Displacement of [3H]rauwolscine from adrenergic alpha2 receptor in rat brain cortex; type: tissue-based
T1 sequence (P22086 whole entry): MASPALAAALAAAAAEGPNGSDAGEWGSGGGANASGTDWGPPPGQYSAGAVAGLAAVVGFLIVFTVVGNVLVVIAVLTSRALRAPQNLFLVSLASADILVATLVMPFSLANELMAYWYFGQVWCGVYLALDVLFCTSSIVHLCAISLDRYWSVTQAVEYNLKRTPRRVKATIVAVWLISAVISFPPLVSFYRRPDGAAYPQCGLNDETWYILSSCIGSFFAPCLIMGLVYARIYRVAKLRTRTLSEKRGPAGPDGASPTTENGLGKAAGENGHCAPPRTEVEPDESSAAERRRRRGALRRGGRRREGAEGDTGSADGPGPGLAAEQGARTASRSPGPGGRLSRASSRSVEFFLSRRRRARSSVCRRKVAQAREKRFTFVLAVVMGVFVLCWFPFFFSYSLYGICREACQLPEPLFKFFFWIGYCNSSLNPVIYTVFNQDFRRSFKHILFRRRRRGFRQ
T1 sequence (P19328 whole entry): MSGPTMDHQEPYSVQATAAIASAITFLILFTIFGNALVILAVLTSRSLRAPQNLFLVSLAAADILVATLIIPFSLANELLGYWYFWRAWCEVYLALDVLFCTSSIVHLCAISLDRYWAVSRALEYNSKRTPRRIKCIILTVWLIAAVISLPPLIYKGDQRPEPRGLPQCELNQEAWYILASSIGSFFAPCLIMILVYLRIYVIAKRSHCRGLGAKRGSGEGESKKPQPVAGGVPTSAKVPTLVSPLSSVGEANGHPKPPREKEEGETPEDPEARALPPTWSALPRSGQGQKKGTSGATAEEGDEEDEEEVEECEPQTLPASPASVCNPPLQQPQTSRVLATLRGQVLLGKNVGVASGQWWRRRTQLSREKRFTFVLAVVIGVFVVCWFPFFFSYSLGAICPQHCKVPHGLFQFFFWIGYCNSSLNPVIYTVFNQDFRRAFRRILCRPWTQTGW
T1 sequence (P22909 whole entry): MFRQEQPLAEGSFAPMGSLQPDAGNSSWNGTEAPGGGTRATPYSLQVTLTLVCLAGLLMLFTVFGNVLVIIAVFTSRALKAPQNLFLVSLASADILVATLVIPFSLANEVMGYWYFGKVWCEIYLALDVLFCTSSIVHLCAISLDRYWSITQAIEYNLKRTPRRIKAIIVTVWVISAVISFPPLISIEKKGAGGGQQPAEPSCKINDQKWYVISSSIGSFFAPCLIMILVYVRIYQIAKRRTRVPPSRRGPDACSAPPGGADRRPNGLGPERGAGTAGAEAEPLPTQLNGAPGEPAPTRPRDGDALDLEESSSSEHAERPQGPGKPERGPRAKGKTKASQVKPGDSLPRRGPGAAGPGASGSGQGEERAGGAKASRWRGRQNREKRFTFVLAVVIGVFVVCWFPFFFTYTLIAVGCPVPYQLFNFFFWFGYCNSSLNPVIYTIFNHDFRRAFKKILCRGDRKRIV

D(2) dopamine receptor = D(2) dopamine receptor (Rattus norvegicus, UniProt P61169); assay: Displacement of [3H]spiperone from dopamine D2 receptor in rat striatum
Sequence of D(2) dopamine receptor (P61169 whole entry): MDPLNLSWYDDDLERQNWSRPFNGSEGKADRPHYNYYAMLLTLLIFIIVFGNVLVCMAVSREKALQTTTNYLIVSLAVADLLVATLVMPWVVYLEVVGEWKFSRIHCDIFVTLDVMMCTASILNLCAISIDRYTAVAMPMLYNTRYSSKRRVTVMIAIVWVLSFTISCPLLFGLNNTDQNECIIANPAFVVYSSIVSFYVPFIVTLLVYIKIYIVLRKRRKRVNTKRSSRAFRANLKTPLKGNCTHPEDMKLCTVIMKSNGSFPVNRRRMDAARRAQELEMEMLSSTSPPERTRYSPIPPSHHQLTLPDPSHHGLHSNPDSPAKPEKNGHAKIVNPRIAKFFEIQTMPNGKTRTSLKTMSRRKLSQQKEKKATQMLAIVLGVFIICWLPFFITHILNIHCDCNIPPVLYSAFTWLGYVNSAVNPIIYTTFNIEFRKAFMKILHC

Histamine H1 receptor = Histamine H1 receptor (Cavia porcellus, UniProt P31389); assay: Displacement of [3H]mepyramine from histamine H1 receptor in guinea pig cerebellum
Sequence of Histamine H1 receptor (P31389 whole entry): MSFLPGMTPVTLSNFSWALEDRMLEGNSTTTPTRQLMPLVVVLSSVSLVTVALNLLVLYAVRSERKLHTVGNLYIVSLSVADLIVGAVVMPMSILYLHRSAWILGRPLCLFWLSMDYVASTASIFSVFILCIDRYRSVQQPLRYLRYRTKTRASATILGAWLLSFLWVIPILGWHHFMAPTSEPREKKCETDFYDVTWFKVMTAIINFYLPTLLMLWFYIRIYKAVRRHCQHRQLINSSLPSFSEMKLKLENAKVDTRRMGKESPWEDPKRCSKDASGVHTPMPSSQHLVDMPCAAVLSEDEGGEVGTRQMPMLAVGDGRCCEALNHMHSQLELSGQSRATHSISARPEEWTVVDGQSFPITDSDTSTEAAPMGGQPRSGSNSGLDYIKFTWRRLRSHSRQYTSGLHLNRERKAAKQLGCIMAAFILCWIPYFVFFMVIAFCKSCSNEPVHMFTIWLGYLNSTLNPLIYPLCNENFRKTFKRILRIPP

[3] = target: 5-hydroxytryptamine receptor 2A (Rattus norvegicus, UniProt P14842); assay: Displacement of [3H]ketanserin from 5HT2A receptor in rat brain cortex; type: tissue-based
Sequence of 5-hydroxytryptamine receptor 2A (P14842 whole entry): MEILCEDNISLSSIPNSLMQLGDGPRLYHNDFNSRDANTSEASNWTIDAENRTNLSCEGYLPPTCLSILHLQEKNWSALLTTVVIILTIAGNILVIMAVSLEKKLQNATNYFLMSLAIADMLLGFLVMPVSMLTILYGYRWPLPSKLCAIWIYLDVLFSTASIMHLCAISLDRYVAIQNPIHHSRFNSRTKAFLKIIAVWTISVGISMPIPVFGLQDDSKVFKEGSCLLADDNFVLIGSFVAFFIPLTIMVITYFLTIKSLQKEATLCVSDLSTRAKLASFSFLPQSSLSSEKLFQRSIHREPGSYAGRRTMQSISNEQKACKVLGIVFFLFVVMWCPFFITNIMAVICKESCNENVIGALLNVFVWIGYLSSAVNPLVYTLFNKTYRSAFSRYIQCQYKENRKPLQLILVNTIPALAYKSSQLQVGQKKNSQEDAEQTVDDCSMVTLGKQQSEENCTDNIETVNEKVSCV

[4] = target: T2, 5-hydroxytryptamine receptor 2C (Rattus norvegicus, UniProt P08909); assay: Displacement of [3H]mesulergine from 5HT2C receptor in rat brain cortex; type: tissue-based
T2 sequence (P08909 whole entry): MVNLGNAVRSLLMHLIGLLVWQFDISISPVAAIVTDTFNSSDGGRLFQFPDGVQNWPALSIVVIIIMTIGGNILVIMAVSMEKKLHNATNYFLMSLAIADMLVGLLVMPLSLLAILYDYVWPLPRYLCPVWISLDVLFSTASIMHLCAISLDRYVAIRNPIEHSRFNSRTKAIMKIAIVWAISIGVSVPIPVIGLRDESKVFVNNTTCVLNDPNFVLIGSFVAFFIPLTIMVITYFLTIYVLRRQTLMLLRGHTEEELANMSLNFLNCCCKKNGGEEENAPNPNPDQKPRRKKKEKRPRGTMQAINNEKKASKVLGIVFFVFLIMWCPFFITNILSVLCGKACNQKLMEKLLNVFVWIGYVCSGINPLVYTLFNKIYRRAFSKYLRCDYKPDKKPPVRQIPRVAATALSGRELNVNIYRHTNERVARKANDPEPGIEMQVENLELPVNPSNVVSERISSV

Sequence of Voltage-gated inwardly rectifying potassium channel KCNH2 (Q12809 whole entry): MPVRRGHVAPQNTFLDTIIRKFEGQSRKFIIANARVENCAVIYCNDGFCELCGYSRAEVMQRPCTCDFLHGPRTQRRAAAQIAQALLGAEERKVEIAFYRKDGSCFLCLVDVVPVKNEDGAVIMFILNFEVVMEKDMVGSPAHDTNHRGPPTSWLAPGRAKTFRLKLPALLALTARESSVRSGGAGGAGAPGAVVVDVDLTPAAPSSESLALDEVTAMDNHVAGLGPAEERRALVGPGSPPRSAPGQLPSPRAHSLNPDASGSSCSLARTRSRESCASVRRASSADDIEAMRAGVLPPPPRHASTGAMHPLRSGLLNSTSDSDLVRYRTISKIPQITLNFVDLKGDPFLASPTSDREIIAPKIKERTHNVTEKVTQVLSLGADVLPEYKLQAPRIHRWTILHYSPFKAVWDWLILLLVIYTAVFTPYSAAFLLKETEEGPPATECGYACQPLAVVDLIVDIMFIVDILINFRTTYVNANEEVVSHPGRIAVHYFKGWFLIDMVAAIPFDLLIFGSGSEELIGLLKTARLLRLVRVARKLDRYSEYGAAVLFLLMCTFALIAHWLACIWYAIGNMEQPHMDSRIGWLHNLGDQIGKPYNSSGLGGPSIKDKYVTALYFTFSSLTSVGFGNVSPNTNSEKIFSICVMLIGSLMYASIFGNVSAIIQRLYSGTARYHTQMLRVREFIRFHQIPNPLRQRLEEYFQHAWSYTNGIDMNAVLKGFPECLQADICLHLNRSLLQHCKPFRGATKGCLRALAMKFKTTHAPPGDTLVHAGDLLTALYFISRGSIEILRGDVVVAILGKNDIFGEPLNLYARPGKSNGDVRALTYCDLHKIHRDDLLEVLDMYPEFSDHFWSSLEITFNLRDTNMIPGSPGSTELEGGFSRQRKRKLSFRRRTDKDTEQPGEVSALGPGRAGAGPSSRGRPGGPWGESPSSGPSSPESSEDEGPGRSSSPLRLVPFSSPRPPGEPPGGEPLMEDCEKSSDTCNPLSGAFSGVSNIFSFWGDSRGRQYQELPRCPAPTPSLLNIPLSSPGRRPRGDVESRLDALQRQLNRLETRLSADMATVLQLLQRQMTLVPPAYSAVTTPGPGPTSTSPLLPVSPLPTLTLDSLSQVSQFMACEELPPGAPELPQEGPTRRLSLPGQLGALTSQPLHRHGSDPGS

Row | SMILES | IC50 [1] [nM] | Ki [2] [nM] | Ki (D(2) dopamine receptor) [nM] | Ki (Histamine H1 receptor) [nM] | Ki [3] [nM] | Ki [4] [nM]
1 | O=S(=O)(c1ccc(C(F)(F)F)cc1)N1CCC(CN2CCC(c3noc4cc(F)ccc34)CC2)CC1 | 1390 | 568.3 | 32.6 | 43.6 | 15.7 | 137
2 | O=[N+]([O-])c1ccc(S(=O)(=O)N2CCC(CN3CCC(c4noc5cc(F)ccc45)CC3)CC2)cc1 | 3810 | 967.3 | 8.7 | 2850 | 0.79 | 998
